ChEMBL document CHEMBL5696441 (Nat Chem Biol, 2011)

What was measured:
[1] = Anti-inflammatory activity against human derived high respond PBMC cells assessed as inhibition in stimulated IL-13 cytokine release incubated for 2 hrs in the presence of LPS/SEB/aCD28 by Luminex based sandwich immunoassay; format: functional, cell-based
[2] = target: Inhibitor of nuclear factor kappa-B kinase subunit epsilon (Homo sapiens) (UniProt Q14164); assay: Inhibition of human IKKepsilon assessed as residual activity at 1 uM using RBER-GSK3 as substrate in presence of 33P-ATP by ProQinase assay relative to control
[3] = test system: Receptor-type tyrosine-protein kinase FLT3 (Homo sapiens), P36888 [UNDEFINED MUTATION]; assay: Inhibition of FLT3 ITD mutant (unknown origin) assessed as remaining activity at 1 uM by Kinome scan method relative to control
[4] = Anti-inflammatory activity against human derived medium respond PBMC cells assessed as inhibition in stimulated IL-1alpha cytokine release incubated for 2 hrs in the presence of LPS/SEB/aCD28 by Luminex based sandwich immunoassay; format: functional, cell-based
[5] = target: T1, TGF-beta receptor type-1 (Homo sapiens) (UniProt P36897); assay: Inhibition of human TGFBR1 assessed as residual activity at 1 uM using RBER-GSK3(14-27) as substrate in presence of 33P-ATP by ProQinase assay relative to control
T1 sequence (whole entry): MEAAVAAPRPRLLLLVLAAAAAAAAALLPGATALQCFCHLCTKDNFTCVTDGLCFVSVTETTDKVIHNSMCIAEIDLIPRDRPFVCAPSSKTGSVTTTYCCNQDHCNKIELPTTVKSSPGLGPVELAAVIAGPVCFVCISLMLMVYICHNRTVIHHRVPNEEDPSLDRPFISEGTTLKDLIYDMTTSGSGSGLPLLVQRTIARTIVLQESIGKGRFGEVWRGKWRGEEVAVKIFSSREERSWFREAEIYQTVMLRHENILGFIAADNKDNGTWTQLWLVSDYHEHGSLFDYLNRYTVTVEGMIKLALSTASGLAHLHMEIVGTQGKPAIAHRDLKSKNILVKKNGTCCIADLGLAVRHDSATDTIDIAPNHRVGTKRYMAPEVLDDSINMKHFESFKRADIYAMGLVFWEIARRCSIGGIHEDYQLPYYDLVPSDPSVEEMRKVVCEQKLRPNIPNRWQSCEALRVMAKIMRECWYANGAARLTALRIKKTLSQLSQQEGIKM

[6] = target: CDK6/cyclin D1 (Homo sapiens) (UniProt P24385+Q00534); assay: Inhibition of human CDK6/CycD1 assessed as residual activity at 1 uM using RBER-CHKtide as substrate in presence of 33P-ATP by ProQinase assay relative to control; format: protein-complex assay
[7] = target: Wee1-like protein kinase (Homo sapiens) (UniProt P30291); assay: Inhibition of human WEE1 assessed as residual activity at 1 uM using poly(Ala,Glu,Lys,Tyr)6:2:5:1 as substrate in presence of 33P-ATP by ProQinase assay relative to control
[8] = target: Ephrin type-A receptor 5 (Homo sapiens) (UniProt P54756); assay: Inhibition of EPHA5 (unknown origin) assessed as remaining activity at 1 uM by Kinome scan method relative to control
Ephrin type-A receptor 5 (Homo sapiens), sequence (P54756 whole entry): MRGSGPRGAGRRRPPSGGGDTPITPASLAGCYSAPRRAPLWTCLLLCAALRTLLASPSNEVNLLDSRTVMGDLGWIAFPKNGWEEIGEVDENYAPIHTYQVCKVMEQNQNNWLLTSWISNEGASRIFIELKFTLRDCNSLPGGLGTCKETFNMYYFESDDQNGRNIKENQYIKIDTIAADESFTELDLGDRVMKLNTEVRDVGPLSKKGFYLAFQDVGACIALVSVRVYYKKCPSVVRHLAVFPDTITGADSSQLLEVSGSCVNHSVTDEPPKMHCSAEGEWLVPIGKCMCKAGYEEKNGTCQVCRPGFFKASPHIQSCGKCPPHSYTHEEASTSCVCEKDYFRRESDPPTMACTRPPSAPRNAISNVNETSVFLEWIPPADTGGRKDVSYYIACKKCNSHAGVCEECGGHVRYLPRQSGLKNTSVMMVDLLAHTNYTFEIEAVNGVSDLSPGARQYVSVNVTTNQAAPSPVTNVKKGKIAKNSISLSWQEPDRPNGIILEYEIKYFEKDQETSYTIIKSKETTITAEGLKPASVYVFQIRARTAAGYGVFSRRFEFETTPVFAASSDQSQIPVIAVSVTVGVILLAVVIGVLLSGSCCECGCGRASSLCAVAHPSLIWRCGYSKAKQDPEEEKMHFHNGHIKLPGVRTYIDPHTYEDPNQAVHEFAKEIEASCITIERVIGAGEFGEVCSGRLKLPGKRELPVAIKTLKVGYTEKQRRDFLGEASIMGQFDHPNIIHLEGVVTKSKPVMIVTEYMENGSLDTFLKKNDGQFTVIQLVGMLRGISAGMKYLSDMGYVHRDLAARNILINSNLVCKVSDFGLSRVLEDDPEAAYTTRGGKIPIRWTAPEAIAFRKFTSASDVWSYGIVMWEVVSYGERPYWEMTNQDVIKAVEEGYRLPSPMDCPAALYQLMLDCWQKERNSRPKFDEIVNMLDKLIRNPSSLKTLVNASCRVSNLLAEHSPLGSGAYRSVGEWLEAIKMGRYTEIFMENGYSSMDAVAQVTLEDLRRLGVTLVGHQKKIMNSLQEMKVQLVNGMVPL

[9] = target: Casein kinase II subunit alpha (Homo sapiens) (UniProt P68400); assay: Inhibition of human CK2alpha1 assessed as residual activity at 1 uM using casein as substrate in presence of 33P-ATP by ProQinase assay relative to control
Casein kinase II subunit alpha (Homo sapiens), sequence (P68400 whole entry, looked up): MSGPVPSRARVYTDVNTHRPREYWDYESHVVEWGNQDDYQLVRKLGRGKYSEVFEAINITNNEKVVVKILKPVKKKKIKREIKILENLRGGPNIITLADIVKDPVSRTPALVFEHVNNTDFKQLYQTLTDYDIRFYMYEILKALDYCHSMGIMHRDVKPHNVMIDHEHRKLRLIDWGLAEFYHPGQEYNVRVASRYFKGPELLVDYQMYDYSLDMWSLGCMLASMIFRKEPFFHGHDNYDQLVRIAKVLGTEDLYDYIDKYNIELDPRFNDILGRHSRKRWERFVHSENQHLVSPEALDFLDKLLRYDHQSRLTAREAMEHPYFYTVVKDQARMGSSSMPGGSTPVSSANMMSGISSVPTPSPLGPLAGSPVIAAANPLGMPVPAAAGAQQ

[10] = target: Calcium/calmodulin-dependent protein kinase type II subunit beta (Homo sapiens) (UniProt Q13554); assay: Inhibition of CAMK2B (unknown origin) assessed as remaining activity at 1 uM by Kinome scan method relative to control
Calcium/calmodulin-dependent protein kinase type II subunit beta (Homo sapiens), sequence (Q13554 whole entry): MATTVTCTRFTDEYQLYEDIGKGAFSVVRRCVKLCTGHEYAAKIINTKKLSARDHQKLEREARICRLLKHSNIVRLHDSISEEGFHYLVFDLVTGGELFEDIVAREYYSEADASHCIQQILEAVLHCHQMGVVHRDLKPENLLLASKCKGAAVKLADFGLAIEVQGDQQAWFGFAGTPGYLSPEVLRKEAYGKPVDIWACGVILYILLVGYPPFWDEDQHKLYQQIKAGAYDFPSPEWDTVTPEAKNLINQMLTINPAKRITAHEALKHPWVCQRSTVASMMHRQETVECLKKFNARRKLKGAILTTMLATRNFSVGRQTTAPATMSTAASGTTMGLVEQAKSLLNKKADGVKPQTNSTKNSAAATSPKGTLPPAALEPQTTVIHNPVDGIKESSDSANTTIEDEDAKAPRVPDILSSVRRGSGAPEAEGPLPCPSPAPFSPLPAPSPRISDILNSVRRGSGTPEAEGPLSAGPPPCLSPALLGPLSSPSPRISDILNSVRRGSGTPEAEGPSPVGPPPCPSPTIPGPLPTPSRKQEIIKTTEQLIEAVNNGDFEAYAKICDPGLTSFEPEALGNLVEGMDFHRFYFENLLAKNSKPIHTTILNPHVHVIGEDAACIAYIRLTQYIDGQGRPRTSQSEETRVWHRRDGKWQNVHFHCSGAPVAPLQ

[11] = target: Protein kinase C theta type (Homo sapiens) (UniProt Q04759); assay: Inhibition of human PKCtheta assessed as residual activity at 1 uM using 3xChocktide-PKC(19-31) as substrate in presence of 33P-ATP by ProQinase assay relative to control
Protein kinase C theta type (Homo sapiens), sequence (Q04759 whole entry, looked up): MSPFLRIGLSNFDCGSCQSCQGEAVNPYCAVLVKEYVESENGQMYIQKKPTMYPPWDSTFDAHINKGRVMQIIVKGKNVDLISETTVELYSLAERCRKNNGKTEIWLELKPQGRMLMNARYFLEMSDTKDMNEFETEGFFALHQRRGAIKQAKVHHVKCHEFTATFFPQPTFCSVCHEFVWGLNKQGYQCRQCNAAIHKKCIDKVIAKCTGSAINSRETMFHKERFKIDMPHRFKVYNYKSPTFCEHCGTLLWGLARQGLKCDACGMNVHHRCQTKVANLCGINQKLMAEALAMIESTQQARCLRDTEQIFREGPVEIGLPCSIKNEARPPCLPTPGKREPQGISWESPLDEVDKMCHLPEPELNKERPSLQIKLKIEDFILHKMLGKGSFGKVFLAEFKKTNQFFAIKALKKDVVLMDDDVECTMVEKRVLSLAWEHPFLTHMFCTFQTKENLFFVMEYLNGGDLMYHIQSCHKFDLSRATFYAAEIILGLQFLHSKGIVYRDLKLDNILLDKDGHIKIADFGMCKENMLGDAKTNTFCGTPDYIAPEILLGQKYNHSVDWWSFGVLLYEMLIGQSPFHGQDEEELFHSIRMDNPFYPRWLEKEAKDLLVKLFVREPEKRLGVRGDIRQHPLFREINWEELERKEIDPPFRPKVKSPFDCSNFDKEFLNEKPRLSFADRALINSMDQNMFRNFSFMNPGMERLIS

[12] = target: Receptor tyrosine-protein kinase erbB-2 (Homo sapiens) (UniProt P04626); assay: Inhibition of ERBB2 (unknown origin) assessed as remaining activity at 1 uM by Kinome scan method relative to control
Receptor tyrosine-protein kinase erbB-2 (Homo sapiens), sequence (P04626 whole entry): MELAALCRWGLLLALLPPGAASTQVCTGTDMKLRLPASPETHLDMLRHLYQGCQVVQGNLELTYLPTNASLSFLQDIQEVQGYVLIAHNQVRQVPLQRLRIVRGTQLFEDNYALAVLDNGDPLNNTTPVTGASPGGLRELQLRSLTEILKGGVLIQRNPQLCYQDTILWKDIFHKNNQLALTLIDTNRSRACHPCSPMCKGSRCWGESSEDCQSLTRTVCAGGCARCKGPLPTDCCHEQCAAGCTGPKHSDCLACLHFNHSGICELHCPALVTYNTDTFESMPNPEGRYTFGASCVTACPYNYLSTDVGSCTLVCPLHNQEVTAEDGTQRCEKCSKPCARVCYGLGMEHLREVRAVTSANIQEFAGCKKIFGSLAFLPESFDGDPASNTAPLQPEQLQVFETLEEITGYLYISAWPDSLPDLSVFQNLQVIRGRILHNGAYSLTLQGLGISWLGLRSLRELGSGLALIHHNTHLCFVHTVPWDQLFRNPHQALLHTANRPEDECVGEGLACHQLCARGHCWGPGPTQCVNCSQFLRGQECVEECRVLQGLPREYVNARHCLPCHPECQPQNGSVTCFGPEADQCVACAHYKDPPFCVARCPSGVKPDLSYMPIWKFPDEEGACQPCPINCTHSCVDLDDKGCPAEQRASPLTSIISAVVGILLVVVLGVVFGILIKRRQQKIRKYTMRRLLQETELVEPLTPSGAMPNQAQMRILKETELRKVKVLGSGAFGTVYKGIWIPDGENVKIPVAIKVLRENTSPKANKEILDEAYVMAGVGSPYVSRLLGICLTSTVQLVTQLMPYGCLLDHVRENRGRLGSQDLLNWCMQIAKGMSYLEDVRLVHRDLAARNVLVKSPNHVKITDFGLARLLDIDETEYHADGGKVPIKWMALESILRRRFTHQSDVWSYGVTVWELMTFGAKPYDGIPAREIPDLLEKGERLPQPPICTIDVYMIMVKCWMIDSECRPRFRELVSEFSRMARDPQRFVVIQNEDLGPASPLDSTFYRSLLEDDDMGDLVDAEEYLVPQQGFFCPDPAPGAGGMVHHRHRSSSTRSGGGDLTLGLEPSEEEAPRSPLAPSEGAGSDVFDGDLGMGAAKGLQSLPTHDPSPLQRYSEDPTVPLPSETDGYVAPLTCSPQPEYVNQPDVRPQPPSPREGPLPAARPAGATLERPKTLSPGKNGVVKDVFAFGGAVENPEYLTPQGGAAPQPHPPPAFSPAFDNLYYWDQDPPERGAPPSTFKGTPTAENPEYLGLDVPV

[13] = Anti-inflammatory activity against human derived high respond PBMC cells assessed as inhibition in stimulated IL-17A cytokine release incubated for 2 hrs in the presence of LPS/SEB/aCD28 by Luminex based sandwich immunoassay; format: functional, cell-based
[14] = target: Serine/threonine-protein kinase MRCK alpha (Homo sapiens) (UniProt Q5VT25); assay: Inhibition of MRCKA (unknown origin) assessed as remaining activity at 1 uM by Kinome scan method relative to control
[15] = target: Ribosomal protein S6 kinase alpha-2 (Homo sapiens) (UniProt Q15349); assay: Inhibition of C-terminal kinase domain RPS6KA2 (unknown origin) assessed as remaining activity at 1 uM by Kinome scan method relative to control
[16] = target: Serine/threonine-protein kinase ULK3 (Homo sapiens) (UniProt Q6PHR2); assay: Inhibition of ULK3 (unknown origin) assessed as remaining activity at 1 uM by Kinome scan method relative to control
Serine/threonine-protein kinase ULK3 (Homo sapiens), sequence (Q6PHR2 whole entry): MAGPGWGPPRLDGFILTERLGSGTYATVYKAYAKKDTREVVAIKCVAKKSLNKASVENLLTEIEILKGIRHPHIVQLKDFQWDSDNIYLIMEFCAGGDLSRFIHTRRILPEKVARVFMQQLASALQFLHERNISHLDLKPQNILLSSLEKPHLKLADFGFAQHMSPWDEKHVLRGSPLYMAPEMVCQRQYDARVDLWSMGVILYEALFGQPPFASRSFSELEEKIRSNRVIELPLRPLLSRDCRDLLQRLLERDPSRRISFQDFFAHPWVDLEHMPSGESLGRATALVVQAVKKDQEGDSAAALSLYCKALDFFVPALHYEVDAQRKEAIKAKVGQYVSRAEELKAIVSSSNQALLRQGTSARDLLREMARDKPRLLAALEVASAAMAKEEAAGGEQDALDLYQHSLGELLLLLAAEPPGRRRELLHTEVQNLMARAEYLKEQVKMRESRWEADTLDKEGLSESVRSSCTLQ

[17] = test system: Hepatocyte growth factor receptor (Homo sapiens), P08581 [F1200I]; assay: Inhibition of human MET F1200I mutant assessed as residual activity at 1 uM using poly(Ala,Glu,Lys,Tyr)6:2:5:1 as substrate in presence of 33P-ATP by ProQinase assay relative to control
[18] = target: Inhibitor of nuclear factor kappa-B kinase subunit beta (Homo sapiens) (UniProt O14920); assay: Inhibition of human IKKbeta assessed as residual activity at 1 uM using RBER-CHKtide as substrate in presence of 33P-ATP by ProQinase assay relative to control
[19] = test system: Epidermal growth factor receptor (Homo sapiens), P00533 [L858R,T790M]; assay: Inhibition of human EGFR T790M/L858R mutant assessed as residual activity at 1 uM using PolyEY as substrate in presence of 33P-ATP by ProQinase assay relative to control
[20] = target: Cytoplasmic tyrosine-protein kinase BMX (Homo sapiens) (UniProt P51813); assay: Inhibition of BMX (unknown origin) assessed as remaining activity at 1 uM by Kinome scan method relative to control
[21] = target: Dual specificity mitogen-activated protein kinase kinase 2 (Homo sapiens) (UniProt P36507); assay: Inhibition of human MEK2 assessed as residual activity at 1 uM using RBER-IRStide as substrate in presence of 33P-ATP by ProQinase assay relative to control
Dual specificity mitogen-activated protein kinase kinase 2 (Homo sapiens), sequence (P36507 whole entry): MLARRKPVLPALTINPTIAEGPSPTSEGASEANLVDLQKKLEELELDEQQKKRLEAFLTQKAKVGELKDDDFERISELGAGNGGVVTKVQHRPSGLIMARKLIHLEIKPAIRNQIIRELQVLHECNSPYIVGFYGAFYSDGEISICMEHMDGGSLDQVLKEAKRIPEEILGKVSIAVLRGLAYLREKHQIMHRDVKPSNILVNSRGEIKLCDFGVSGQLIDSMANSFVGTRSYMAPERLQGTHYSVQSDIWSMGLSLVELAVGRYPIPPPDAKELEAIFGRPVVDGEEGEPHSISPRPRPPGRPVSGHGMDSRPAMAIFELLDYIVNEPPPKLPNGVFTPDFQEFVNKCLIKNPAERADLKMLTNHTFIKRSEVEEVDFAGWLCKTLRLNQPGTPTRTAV

[22] = target: Activin receptor type-2B (Homo sapiens) (UniProt Q13705); assay: Inhibition of ACVR2B (unknown origin) assessed as remaining activity at 1 uM by Kinome scan method relative to control
[23] = target: Protein kinase C delta type (Homo sapiens) (UniProt Q05655); assay: Inhibition of human PKCdelta assessed as residual activity at 1 uM using 3xChocktide-PKC(19-31) as substrate in presence of 33P-ATP by ProQinase assay relative to control
[24] = target: Tyrosine-protein kinase Yes (Homo sapiens) (UniProt P07947); assay: Inhibition of YES (unknown origin) assessed as remaining activity at 1 uM by Kinome scan method relative to control

O=C1c2ccc(Nc3ccc(F)cc3F)cc2CCc2ccc(OC[C@H](O)CO)cc21 [Skepinone-L]
IC50 [1]: 1940 nM | Activity [2]: 103% | Activity [3]: 96% | IC50 [4]: 370 nM | Activity [5]: 93% | Activity [6]: 88% | Activity [7]: 88% | Activity [8]: 98% | Activity [9]: 95% | Activity [10]: 100% | Activity [11]: 99% | Activity [12]: 100% | IC50 [13]: 420 nM | Activity [14]: 100% | Activity [15]: 100% | Activity [16]: 100% | Activity [17]: 96% | Activity [18]: 81% | Activity [19]: 93% | Activity [20]: 100% | Activity [21]: 99% | Activity [22]: 83% | Activity [23]: 104% | Activity [24]: 97%
